Experimental data from ChEMBL document CHEMBL5230122, “Natural products and other inhibitors of F1FO ATP synthase” (Eur J Med Chem, 2020).
Converted amounts (≈) assume the structure as drawn. One block for each compound: values may come before it. Square brackets hold non-standard residues; d marks the D form. Peptide text beside a SMILES is read from it. * marks the point of attachment. X4 = CC(C)C[C@@H](C[N+]1=C2CCCN2CCC1)N*; Pip = O=C(O)[C@@H]1CCCCN1; Iva = CC[C@](C)(N)C(=O)O; Aib = CC(C)(N)C(=O)O; βAla = NCCC(=O)O

Experiments:
A498 = test: Antiproliferative activity against human A498 cells assessed as decrease in cellular ATP content and measured after 2 days by CellTiter-Glo luminescent assay; assay type: functional, cell-based; details: A498, 48 h
[1] = Inhibition of bovine heart mitochondrial F0F1-ATP synthase incubated for 15 mins by colorimetric assay; assay type: mitochondria, Bos taurus, Mitochondria
A549 = test: Antiproliferative activity against human A549 cells assessed as decrease in cellular ATP content and measured after 2 days by CellTiter-Glo luminescent assay; assay type: functional, cell-based; details: A549, 48 h
KB-V1 = test: Antiproliferative activity against human KB-V1 cells assessed as decrease in cellular ATP content and measured after 2 days by CellTiter-Glo luminescent assay; assay type: functional, cell-based; details: KB-V1, 48 h
[2] = Inhibition of yeast mitochondrial F0F1-ATPase incubated for 15 mins by colorimetric assay; assay type: mitochondria, Saccharomyces cerevisiae, Mitochondria
[3] = Cytotoxicity against mouse L929 cells assessed as reduction in cell viability; assay type: toxicity, cell-based
KB 3-1 [4] = test: Antiproliferative activity against human KB-3-1 cells assessed as decrease in cellular ATP content and measured after 2 days by CellTiter-Glo luminescent assay; assay type: functional, cell-based; details: KB 3-1, 48 h
U-937 [5] = test: Antiproliferative activity against human U-937 cells assessed as decrease in cellular ATP content and measured after 2 days by CellTiter-Glo luminescent assay; assay type: functional, cell-based; details: U-937, 48 h
SK-OV-3 [6] = test: Antiproliferative activity against human SK-OV-3 cells assessed as decrease in cellular ATP content and measured after 2 days by CellTiter-Glo luminescent assay; assay type: functional, cell-based; details: SK-OV-3, 48 h
K562 = test: Antiproliferative activity against human K562 cells assessed as decrease in cellular ATP content and measured after 2 days by CellTiter-Glo luminescent assay; assay type: functional, cell-based; details: K562, 48 h
[7] = Anticancer activity against rat E1A-3Y1-2 cells assessed as reduction in cell viability incubated for 72 hrs by MTT assay; assay type: functional, cell-based; details: E1A-3Y1-2, 72 h
[8] = Anticancer activity against rat E1A-3Y1-1 cells assessed as reduction in cell viability incubated for 72 hrs by MTT assay; assay type: functional, cell-based; details: E1A-3Y1-1, 72 h
[9] = Anticancer activity against rat E1A-3Y1-3 cells assessed as reduction in cell viability incubated for 72 hrs by MTT assay; assay type: functional, cell-based; details: E1A-3Y1-3, 72 h
[10] = Anticancer activity against rat Ad12-3Y1-Z13 cells assessed as reduction in cell viability incubated for 72 hrs by MTT assay; assay type: functional, cell-based; details: Ad12-3Y1-Z13, 72 h
[11] = Anticancer activity against rat Ad12-3Y1-W5 cells assessed as reduction in cell viability incubated for 72 hrs by MTT assay; assay type: functional, cell-based; details: Ad12-3Y1-W5, 72 h
[12] = Anticancer activity against rat Ad12-3Y1-Z19 cells assessed as reduction in cell viability incubated for 72 hrs by MTT assay; assay type: functional, cell-based; details: Ad12-3Y1-Z19, 72 h
HeLa S3 = test: Anticancer activity against human HeLa S3 cells assessed as reduction in cell viability incubated for 48 hrs by WST-8 assay; assay type: functional, cell-based; details: HeLa S3, 48 h
[13] = Anticancer activity against rat Ad12-3Y1-Z11 cells assessed as reduction in cell viability incubated for 72 hrs by MTT assay; assay type: functional, cell-based; details: Ad12-3Y1-Z11, 72 h
LoVo = test: Anticancer activity against human LoVo cells assessed as reduction in cell viability incubated for 72 hrs by CCK-8 assay; assay type: functional, cell-based
SW480 = test: Anticancer activity against human SW480 cells assessed as reduction in cell viability incubated for 72 hrs by CellTiter-Glo luminescent cell viability assay; assay type: functional, cell-based; details: SW480, 72 h
KB 3-1 [14] = test: Anticancer activity against human KB-3-1 cells assessed as reduction in cell viability incubated for 72 hrs by CellTiter-Glo luminescent cell viability assay; assay type: functional, cell-based; details: KB 3-1, 72 h
HCT-116 = test: Anticancer activity against human HCT-116 cells assessed as reduction in cell viability incubated for 72 hrs by CellTiter-Glo luminescent cell viability assay; assay type: functional, cell-based; details: HCT-116, 72 h
HL-60 = test: Anticancer activity against human HL-60 cells assessed as reduction in cell viability incubated for 72 hrs by CCK-8 assay; assay type: functional, cell-based; details: HL-60, 72 h
NCI-H1299 = test: Anticancer activity against human NCI-H1299 cells assessed as reduction in cell viability incubated for 72 hrs by CCK-8 assay; assay type: functional, cell-based; details: NCI-H1299, 72 h
U-937 [15] = test: Anticancer activity against human U-937 cells assessed as reduction in cell viability incubated for 72 hrs by CellTiter-Glo luminescent cell viability assay; assay type: functional, cell-based; details: U-937, 72 h
SK-OV-3 [16] = test: Anticancer activity against human SK-OV-3 cells assessed as reduction in cell viability incubated for 72 hrs by CellTiter-Glo luminescent cell viability assay; assay type: functional, cell-based; details: SK-OV-3, 72 h
MCF7 = test: Anticancer activity against human MCF7 cells assessed as reduction in cell viability incubated for 72 hrs by CCK-8 assay; assay type: functional, cell-based; details: MCF7, 72 h
Jurkat [17] = test: Anticancer activity against human Jurkat cells assessed as reduction in cell viability incubated for 72 hrs by CellTiter-Glo luminescent cell viability assay; assay type: functional, cell-based
Jurkat [18] = test: Cytotoxicity against human Jurkat cells assessed as reduction in cell viability incubated for 72 hrs by WST-8 assay; assay type: functional, cell-based
SK-OV-3 [19] = test: Cytotoxicity against human SK-OV-3 cells assessed as reduction in cell viability incubated for 72 hrs by WST-8 assay; assay type: functional, cell-based; details: SK-OV-3, 72 h
[20] = Cytotoxicity against human ACC-MESO-1 cells assessed as reduction in cell viability incubated for 72 hrs by WST-8 assay; assay type: functional, cell-based; details: ACC-MESO-1, 72 h
PANC-1 = test: Anticancer activity against human PANC-1 cells assessed as reduction in cell viability by measuring ATP level incubated for 24 hrs by CellTiter-Glo assay; assay type: functional, cell-based; details: PANC-1, 24 h

IC50 [1]: 15 nM
IC50 (A549): 0.4 ng/mL (≈ 0.678 nM)
IC50 (KB-V1): 0.6 ng/mL (≈ 1.02 nM)
IC50 [2]: 15 nM
IC50 (KB 3-1 [4]): 0.3 ng/mL (≈ 0.509 nM)
IC50 (U-937 [5]): 0.1 ng/mL (≈ 0.17 nM)
IC50 (SK-OV-3 [6]): 1 ng/mL (≈ 1.7 nM)
IC50 (K562): 0.6 ng/mL (≈ 1.02 nM)
SMILES: CCC[C@H](O)[C@@H](C)C(=O)NC/C=C\C[C@@H](C)[C@@H](O)[C@H](C)[C@@H]1C/C=C\C[C@H](C)[C@H](O)Cc2cc(OC)cc(O)c2C(=O)O1
IC50 (A498): 0.4 ng/mL (≈ 0.678 nM)
IC50 [3]: 1.2 ng/mL (≈ 2.03 nM)

IC50 (HeLa S3): 360 nM
SMILES: CC[C@H](C)[C@@H]1NC(=O)[C@H](NC(=O)[C@H](C)NC(=S)[C@H](C)NC(=S)[C@H](C)NC(=S)[C@H](C)NC(=S)[C@H](CCSC)NC(=S)[C@@H](NC(=O)C(C)=O)C(C)C)CS/C=C\NC(=O)[C@H](C(O)c2cn(C)c[n+]2C)NC(=O)[C@H](CC(C)C)NC(=O)[C@H](C)NC1=O (some centres not stated)
IC50 [7]: 21 nM
IC50 [8]: 21 nM
IC50 [9]: 21 nM
IC50 [10]: 16 nM
IC50 [11]: 16 nM
IC50 [12]: 16 nM
IC50 [13]: 16 nM

IC50 (LoVo): 1180 nM
IC50 (SW480): 12200 nM
IC50 (KB 3-1 [14]): 4490 nM
IC50 (HCT-116): 510 nM
IC50 (HL-60): 1470 nM
IC50 (NCI-H1299): 5020 nM
IC50 (U-937 [15]): 16900 nM
IC50 (SK-OV-3 [16]): 20900 nM
IC50 (MCF7): 830 nM
IC50 (Jurkat [17]): 5280 nM
SMILES: CC(=O)C(=O)N[C@H](C(=S)N[C@@H](CC[S+](C)[O-])C(=S)N[C@@H](C)C(=O)N[C@@H](C)C(=S)N[C@@H](C)C(=S)N[C@@H](C)C(=O)N[C@H]1C(=O)N[C@@H](C(C)C)C(=O)N[C@@H](C)C(=O)N[C@@H](Cc2ccccc2)C(=O)N[C@@H](C(O)c2cn(C)c[n+]2C)C(=O)N/C=C\SC1C)C(C)C (some centres not stated)

SMILES: CC[C@H](C)[C@@H]1NC(=O)[C@H](NC(=O)[C@H](C)NC(=S)[C@H](C)NC(=S)[C@H](C)NC(=S)[C@H](C)NC(=S)[C@H](CCSC)NC(=S)[C@@H](NC(=O)C(C)O)C(C)C)CS/C=C\NC(=O)[C@H]([C@@H](O)c2cn(C)c[n+]2C)NC(=O)[C@H](CC(C)C)NC(=O)[C@H](C)NC1=O (some centres not stated)
IC50 (Jurkat [18]): 5400 nM
IC50 (SK-OV-3 [19]): 10800 nM
IC50 [20]: 14300 nM

SMILES: CC[C@](C)(NC(=O)[C@H](CC(C)C)NC(=O)[C@H](C)NC(=O)C(C)(C)NC(=O)[C@@H]1CCCCN1C(=O)C(C)(C)NC(=O)C(C)(C)NC(=O)CNC(=O)CCNC(=O)[C@H](CC(C)C)NC(=O)C(C)(C)NC(=O)C(C)(C)NC(=O)[C@@H]1CCCCN1C(=O)C(C)(C)NC(=O)[C@@H]1CCCCN1C(C)=O)C(=O)N[C@@H](CC(C)C)C[N+]1=C2CCCN2CCC1 (Ac-[Pip][Aib][Pip][Aib][Aib]L[βAla]G[Aib][Aib][Pip][Aib]AL[Iva]-X4)
IC50 (PANC-1): 52 nM
